Experimental findings from patent US20120184548A1, “CARBOXYLIC ACID ARYL AMIDES” (priority 2011, published 2012) are described below.

The test system of test [1] is SW620 human colon cancer cells. Put plainly: SW620 Cell Viability Assay (CellTiter-Glo). The note with it: SW-620, 96 h, 4 days incubation, read-out: Cellular EC50 SW620. It counts as cell-based. The protocol: 1. Cell Plate Preparation: SW620 human colon cancer cells (known to express DYRK1B), obtained from ATCC, were seeded into 96-well plates at […] in 50 μL of media. • Harvested the required number of cells (counts & viability determined by Guava Viacount). • Centrifuge cells to pellet and removed supernant. • Resuspended in growth media (50 μL/well) & pipetted thoroughly to break up clumps. • Setup for ˜100 wells/plate, therefore, VT=5 mL/plate @ 1.2×10^5 cells/mL. 1A. Some cells (S-) were allowed to attach for 24 hrs, serum starved for 48 hrs, and then followed with treatments of test compound.
Test Compound solution was prepared in regular corresponding media supplemented with serum
2. Test Compound Preparation: Test compounds were solubilized in either DMSO or media and prepared at various stock concentrations. • All compounds were incubated at 37° C. for 30 minutes and vortexed. • (5 mM stocks of test compound were prepared for non-soluble drugs)
3. Test Compound Plate Preparation:
• The 10 mM test compound stock was diluted to a concentration of 100× the final Cmax concentration. • Then the test compound stock is diluted 50-fold in media and/or second test compound for a final Cmax concentration in the test compound plate. • The Cmax in the test compound plate (2% DMSO) is 2-fold higher than the final Cmax in the cell plate (60 uL titrations were 1:3). 4. Viability Assay: This assay was performed as follows: • Transfer 50 μL of test compound solution per well from the test compound plate onto the cell plate prepared in Step #1. • Mix the plate with treated cells by pipetting up and down three times with 200 μL multi-channel pipet. • Incubate the cells in 5% CO2 incubator @ 37° C. for 4 days. • Run the CellTiter-Glo™ Luminescent Cell Viability Assay. The results of this assay, given as EC50 values, indicate the concentration of test compound that inhibits tumor cell proliferation by 50%.

The target of a further test is T1, Human DYRK1B (Homo sapiens, UniProt Q9Y463).
T1 construct: purchased Invitrogen PR8350B (former PV4649)
T1 sequence (Q9Y463 whole entry): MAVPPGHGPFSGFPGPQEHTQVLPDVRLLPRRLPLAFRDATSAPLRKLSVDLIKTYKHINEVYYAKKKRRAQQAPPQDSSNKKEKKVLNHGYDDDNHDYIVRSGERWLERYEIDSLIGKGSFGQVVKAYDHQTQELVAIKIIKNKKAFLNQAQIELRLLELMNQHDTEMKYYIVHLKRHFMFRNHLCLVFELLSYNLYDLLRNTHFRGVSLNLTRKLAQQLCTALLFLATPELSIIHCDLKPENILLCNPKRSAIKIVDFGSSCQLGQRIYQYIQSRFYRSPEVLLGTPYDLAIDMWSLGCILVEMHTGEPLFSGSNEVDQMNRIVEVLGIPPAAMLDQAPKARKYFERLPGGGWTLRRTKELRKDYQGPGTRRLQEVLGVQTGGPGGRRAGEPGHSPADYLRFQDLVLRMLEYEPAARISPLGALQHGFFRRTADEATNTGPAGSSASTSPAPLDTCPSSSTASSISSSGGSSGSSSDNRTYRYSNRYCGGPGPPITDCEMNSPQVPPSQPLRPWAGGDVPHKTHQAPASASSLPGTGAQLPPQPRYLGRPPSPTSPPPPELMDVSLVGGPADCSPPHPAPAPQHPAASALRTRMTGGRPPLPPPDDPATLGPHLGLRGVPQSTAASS
In words: DYRK1B Kinase TR-FRET (IMAP-Tb) Assay. It counts as biochemical. The following applies: for IC50: TR-FRET, ATP 70 μM, 37° C. for 60 minutes, averages of multiple runs, read-out: Enzyme IC50 DYRK1B. The source says: The kinase TR-FRET (IMAP-Tb) assay uses a fluorescence labeled substrate peptide in the kinase reaction. Upon phosphorylation by the kinase, phosphopeptide is produced, which will be detected by the binding solution provided in IMAP TR-FRET binding kit. After the completion of the kinase reaction, the reaction will be stopped by adding the binding solution containing terbium tracer. This tracer is immobilized on the surface of the IMAP beads, which also contain metal ions on the beads that bind to the phospho-groups of the products. Thus the phosphorylated product of the reaction can enter into close proximity to the tracer, producing resonance energy transfer. Due to the long lifetime of terbium (Tb) fluorescence the detection can be run in time resolved mode, which virtually eliminates fluorescence interference from assay components or compounds. […] IC50 is the amount of test compound that inhibits 50% of the activity of DYRK1B in this assay. […] 1. Human DYRK1B: from Invitrogen. Part # PR8350B (former PV4649) 2. Substrate Peptide: RRRFRPASPLRGPPK 3. IMAP TR-FRET IPP Explorer Kit: from Molecular Devices. Part # R8157 4. Kinase Assay Buffer (KAB): 10 mM HEPES pH 7.0, 50 mM NaCl, 5 mM MgCl2, 1 mM DTT, 1 mM NaVO4, 200 μg/mL BSA (0.02%) 5. Assay Plate: Remp polypropylene clear 384-well microplate. Cat#23490-102 6. Detection Plate: Costa black 384-well microplate. Cat #3710 Assay Procedure: This assay was performed as follows: 1. Transfer 1.5 μL of 20× compound solution to each well of an assay plate. 2. Add to each well 22.5 μL of KAB Buffer. 3. Add to each well 3 μL of the solution of DYRK1B and ATP. […] Add to each well 3 μL of the substrate peptide. […] Incubate the assay plates at 37° C. for 60 minutes. 6. Add 18 μL of Detection Solution (1:800 diluted Progress bead stock, 1:400 diluted Tb stock, 80% Buffer A, and 20% Buffer B) into each well of detection plates. 7. Transfer 6 μL of assay solution from the assay plate to the detection plate. 8. Shake detection plates for 30 minutes. 9. Read plates in Envision with wavelength set at excitation 340 nm for Tb, emission 490 nm, and […]. 10. Calculation: TR-FRET Signal=(Reading at […])×2000000

The target of the next test is T2, Human DYRK1A (Homo sapiens, UniProt Q13627).
T2 construct: purchased Invitrogen PV3997
In words: DYRK1A Kinase TR-FRET (IMAP-Tb) Assay. Format: biochemical. The following applies: for IC50: TR-FRET, ATP 70 μM, 37° C. for 60 minutes, averages of multiple runs, read-out: Enzyme IC50 DYRK1A. The source says: The kinase TR-FRET (IMAP-Tb) assay uses a fluorescence labeled substrate peptide in the kinase reaction. Upon phosphorylation by the kinase, phosphopeptide is produced, which will be detected by the binding solution provided in IMAP TR-FRET binding kit. After the completion of the kinase reaction, the reaction will be stopped by adding the binding solution containing terbium tracer. This tracer is immobilized on the surface of the IMAP beads, which also contain metal ions on the beads that bind to the phospho-groups of the products. Thus the phosphorylated product of the reaction can enter into close proximity to the tracer, producing resonance energy transfer. Due to the long lifetime of terbium (Tb) fluorescence the detection can be run in time resolved mode, which virtually eliminates fluorescence interference from assay components or compounds.
The TR-FRET signal measurement from this assay, given as an IC50 measurement, is a measure of a test compound's ability to interfere with the phosphorylation of the peptide substrate, that is it inhibits the phosphorylation of the substrate peptide by DYRK1A, and is thus a measure of the test compound's ability to inhibit the activity of DYRK1A.
1. Human DYRK1A: from Invitrogen. Part # PV3997
2. Substrate Peptide: […]
3. IMAP TR-FRET IPP Explorer Kit: from Molecular Devices. Part # R8157 4. Kinase Assay Buffer (KAB): 10 mM HEPES pH 7.0, 50 mM NaCl, 5 mM MgCl2, 1 mM DTT, 1 mM NaVO4, 200 μg/mL BSA (0.02%) 5. Assay Plate: Remp polypropylene clear 384-well microplate. […] Detection Plate: Costa black 384-well microplate. […] Transfer 1.5 μL of 20× compound solution to each well of an assay plate. 2. Add to each well 22.5 μL of KAB Buffer. 3. Add to each well 3 μL of the solution of DYRK1A and ATP. […] Add to each well 3 μL of the substrate peptide. The assay concentration is 1.0 μM 5. Incubate the assay plates at 37° C. for 60 minutes. 6. Add 18 μL of Detection Solution (1:800 diluted Progress bead stock, 1:400 diluted Tb stock, 80% Buffer A, and 20% Buffer B) into each well of detection plates. 7. Transfer 6 μL of assay solution from the assay plate to the detection plate. 8. Shake detection plates for 30 minutes. 9. Read plates in Envision with wavelength set at excitation 340 nm for Tb, emission 490 nm, and […].

Each structure is given as a SMILES string.

For `COCCOc1cc2cc(C(=O)Nc3cc(C(=O)NC(CN)c4cccc(Cl)c4)ccc3Cl)c(=O)[nH]c2cc1OC` (stereo not drawn) [Example 60, N-(5-(2-Amino-1-(3-chlorophenyl)ethylcarbamoyl)-2-chlorophenyl)-7-methoxy-6-(2-methoxyethoxy)-2-oxo-1,2-dihydroquinoline-3-carboxamide], the 50% effective concentration (EC50) in test [1] was determined as 200 nM. The IC50 on Human DYRK1B stood at 21.7 nM; on Human DYRK1A, 14.3 nM.

Consider `COCCOc1cc2cc(C(=O)Nc3cc(C(=O)NC(CN)c4ccccc4)ccc3Cl)c(=O)[nH]c2cc1OC` (stereo not drawn) [Example 62, N-(5-(2-Amino-1-phenylethylcarbamoyl)-2-chlorophenyl)-7-methoxy-6-(2-methoxyethoxy)-2-oxo-1,2-dihydroquinoline-3-carboxamide], for which the EC50 in test [1] worked out at 440 nM. Further, the 50% inhibitory concentration (IC50) at Human DYRK1B came to 29.1 nM; at Human DYRK1A it was 11.4 nM.

As to `COCCOc1cc2cc(C(=O)Nc3cc(C(=O)NC(CN)c4ccccc4)ccc3C)c(=O)[nH]c2cc1OC` (stereo not drawn) [Example 37, 7-Methoxy-6-(2-methoxy-ethoxy)-2-oxo-1,2-dihydro-quinoline-3-carboxylic acid [5-(2-amino-1-phenyl-ethylcarbamoyl)-2-methyl-phenyl]-amide], in test [1], the concentration for a half-maximal effect (EC50) turned out to be 1820 nM. For the same compound, the figures for the IC50 on Human DYRK1B and at Human DYRK1A were 32.5 nM and 19.1 nM, respectively.

As for `COC(=O)c1ccc(Cl)c(NC(=O)c2cc3cc(OC)c(OC)cc3[nH]c2=O)c1` [Example 19, 4-Chloro-3-[(6,7-dimethoxy-2-oxo-1,2-dihydro-quinoline-3-carbonyl)-amino]-benzoic acid methyl ester], the EC50 in test [1] was greater than 10000 nM. Further, the inhibition at 10 µM on Human DYRK1B (10 μM test compound, reported where IC50 was not determined, read-out: Enzyme DYRK1B % inhibition at 10 μM test compound concentration) was 47%; on Human DYRK1A (10 μM test compound, reported where IC50 was not determined, read-out: Enzyme DYRK1A % inhibition at 10 μM test compound concentration), 44%.

`COCCOc1cc2cc(C(=O)Nc3cc(C(=O)N[C@H](CCN)c4ccccc4)ccc3Cl)c(=O)[nH]c2cc1OC` [Example 63, (R)-N-(5-(3-Amino-1-phenylpropylcarbamoyl)-2-chlorophenyl)-7-methoxy-6-(2-methoxyethoxy)-2-oxo-1,2-dihydroquinoline-3-carboxamide]: in test [1], the EC50 amounted to 640 nM. The IC50 on Human DYRK1B is 8 nM; at Human DYRK1A, 5 nM.

Turning to `COCCOc1cc2cc(C(=O)Nc3cc(C(=O)NC(CCN)c4ccccc4)ccc3C)c(=O)[nH]c2cc1OC` (stereo not drawn) [Example 38, 7-Methoxy-6-(2-methoxy-ethoxy)-2-oxo-1,2-dihydro-quinoline-3-carboxylic acid [5-(3-amino-1-phenyl-propylcarbamoyl)-2-methyl-phenyl]-amide], the EC50 in test [1] was 2760 nM. For the same compound, the half-maximal inhibitory concentration (IC50) is 44.8 nM on Human DYRK1B and 34.7 nM at Human DYRK1A.

In the case of `COc1cc2[nH]c(=O)c(C(=O)Nc3cc(C(=O)NCc4cccc(Cl)c4)ccc3C)cc2cc1OCCN1CCOCC1` [Example 43, 7-Methoxy-6-(2-morpholin-4-yl-ethoxy)-2-oxo-1,2-dihydro-quinoline-3-carboxylic acid [5-(3-chloro-benzylcarbamoyl)-2-methyl-phenyl]-amide], the EC50 in test [1] turned out to be 306 nM. The IC50 on Human DYRK1B came out at 178 nM; on Human DYRK1A it was 6 nM.

`COc1cc2[nH]c(=O)c(C(=O)Nc3cc(C(=O)NC(CCN)c4ccccc4)ccc3C)cc2cc1OCCN1CCOCC1` (stereo not drawn) [Example 44, 7-Methoxy-6-(2-morpholin-4-yl-ethoxy)-2-oxo-1,2-dihydro-quinoline-3-carboxylic acid [5-(3-amino-1-phenyl-propylcarbamoyl)-2-methyl-phenyl]-amide]: the EC50 in test [1] was greater than 3000 nM. The IC50 was found to be 63 nM at Human DYRK1B and 33.4 nM on Human DYRK1A.

`COC(=O)c1ccc(C)c(NC(=O)c2cc3cc(OCCN4CCOCC4)c(OC)cc3[nH]c2=O)c1` [Example 39, 3-{[7-Methoxy-6-(2-morpholin-4-yl-ethoxy)-2-oxo-1,2-dihydro-quinoline-3-carbonyl]-amino}-4-methyl-benzoic acid methyl ester]: the EC50 in test [1] is 3410 nM. For the same compound, the IC50 was 190 nM on Human DYRK1B and 150 nM on Human DYRK1A.

`COc1cc2cc(C(=O)Nc3cc(C(=O)NC(CCN)c4ccccc4)ccc3C)c(=O)[nH]c2cc1OC` (stereo not drawn) [Example 35, 6,7-Dimethoxy-2-oxo-1,2-dihydro-quinoline-3-carboxylic acid [5-(3-amino-1-phenyl-propylcarbamoyl)-2-methyl-phenyl]-amide]: the concentration for a half-maximal effect (EC50) in test [1] was determined as 2050 nM. Besides, the IC50 came to 59.5 nM at Human DYRK1B and 154 nM on Human DYRK1A.

`COCCOc1cc2cc(C(=O)Nc3cc(C(=O)NCc4cccc(Cl)c4)ccc3C)c(=O)[nH]c2cc1OC` [Example 52, 7-Methoxy-6-(2-methoxy-ethoxy)-2-oxo-1,2-dihydro-quinoline-3-carboxylic acid [5-(3-chloro-benzylcarbamoyl)-2-methyl-phenyl]-amide]: the EC50 in test [1] stood at 780 nM. Moreover, the IC50 at Human DYRK1B stood at 181 nM; at Human DYRK1A it was 118 nM.

Take `COCCOc1cc2cc(C(=O)Nc3cc(C(=O)OC)ccc3Cl)c(=O)[nH]c2cc1OC` [Example 53, Methyl 4-chloro-3-(7-methoxy-6-(2-methoxyethoxy)-2-oxo-1,2-dihydroquinoline-3-carboxamido)benzoate]: the EC50 in test [1] is greater than 10000 nM. Besides, the IC50 at Human DYRK1B stood at 115 nM; at Human DYRK1A, 245 nM.
